Counter-ions that a name gives are not always drawn.
Assays:
Assay in all cases: isoTOP-ABPP of compound-treated primary human T cells
Type in all cases: cell-based
[1] = molecular target: T1, Cys residues in primary human T cells (Homo sapiens, UniProt Q9UL40); conditions: ZNF346 C68 (Q9UL40)
T1 sequence (Q9UL40 1-294): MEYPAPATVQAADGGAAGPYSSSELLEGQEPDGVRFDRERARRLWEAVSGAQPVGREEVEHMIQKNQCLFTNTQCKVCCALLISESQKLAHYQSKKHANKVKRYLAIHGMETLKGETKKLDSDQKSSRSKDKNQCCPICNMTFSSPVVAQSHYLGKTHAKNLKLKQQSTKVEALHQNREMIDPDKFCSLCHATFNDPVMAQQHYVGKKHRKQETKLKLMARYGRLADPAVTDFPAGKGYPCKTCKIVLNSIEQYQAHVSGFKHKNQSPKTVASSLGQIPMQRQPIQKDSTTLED

[2] = molecular target: T2, Cys residues in primary human T cells (Homo sapiens, UniProt Q9NRG0); conditions: CHRAC1 C55 (Q9NRG0)
T2 sequence (Q9NRG0 1-131): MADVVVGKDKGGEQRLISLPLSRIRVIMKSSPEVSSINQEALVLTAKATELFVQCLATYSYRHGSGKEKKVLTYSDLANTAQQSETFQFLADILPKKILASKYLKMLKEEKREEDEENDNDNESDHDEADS

[3] = molecular target: Cys residues in primary human T cells (Homo sapiens, UniProt Q5T4S7); conditions: UBR4 C2554 (Q5T4S7)
[4] = molecular target: T3, Cys residues in primary human T cells (Homo sapiens, UniProt P11216); conditions: PYGB C326 (P11216)
T3 sequence (P11216 1-843): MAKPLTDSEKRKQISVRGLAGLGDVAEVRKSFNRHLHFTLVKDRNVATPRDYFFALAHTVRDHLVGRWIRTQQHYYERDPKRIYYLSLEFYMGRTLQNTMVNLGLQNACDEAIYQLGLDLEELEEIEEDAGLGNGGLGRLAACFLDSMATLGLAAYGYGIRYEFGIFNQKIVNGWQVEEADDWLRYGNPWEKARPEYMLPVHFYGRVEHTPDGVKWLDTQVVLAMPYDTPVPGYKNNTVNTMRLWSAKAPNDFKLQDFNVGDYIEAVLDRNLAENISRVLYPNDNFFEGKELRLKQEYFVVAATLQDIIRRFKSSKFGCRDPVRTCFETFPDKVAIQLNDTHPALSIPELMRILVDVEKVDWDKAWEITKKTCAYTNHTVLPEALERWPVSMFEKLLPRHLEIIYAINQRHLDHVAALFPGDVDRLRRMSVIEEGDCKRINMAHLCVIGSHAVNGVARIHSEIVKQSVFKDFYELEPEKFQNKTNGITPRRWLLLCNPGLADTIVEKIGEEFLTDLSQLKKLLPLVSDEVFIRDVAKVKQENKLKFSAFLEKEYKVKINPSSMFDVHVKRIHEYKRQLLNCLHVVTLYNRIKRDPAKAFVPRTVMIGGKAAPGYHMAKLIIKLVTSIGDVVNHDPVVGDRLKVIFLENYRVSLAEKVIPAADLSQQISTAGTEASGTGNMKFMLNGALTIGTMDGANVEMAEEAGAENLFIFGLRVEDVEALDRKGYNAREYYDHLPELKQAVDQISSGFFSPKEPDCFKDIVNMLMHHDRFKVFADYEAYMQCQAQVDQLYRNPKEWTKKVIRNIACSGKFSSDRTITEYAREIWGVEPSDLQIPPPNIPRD

[5] = molecular target: Cys residues in primary human T cells (Homo sapiens, UniProt P18583); conditions: SON C92 (P18583)
Chain of Cys residues in primary human T cells (Homo sapiens, UniProt P18583) (P18583 whole entry): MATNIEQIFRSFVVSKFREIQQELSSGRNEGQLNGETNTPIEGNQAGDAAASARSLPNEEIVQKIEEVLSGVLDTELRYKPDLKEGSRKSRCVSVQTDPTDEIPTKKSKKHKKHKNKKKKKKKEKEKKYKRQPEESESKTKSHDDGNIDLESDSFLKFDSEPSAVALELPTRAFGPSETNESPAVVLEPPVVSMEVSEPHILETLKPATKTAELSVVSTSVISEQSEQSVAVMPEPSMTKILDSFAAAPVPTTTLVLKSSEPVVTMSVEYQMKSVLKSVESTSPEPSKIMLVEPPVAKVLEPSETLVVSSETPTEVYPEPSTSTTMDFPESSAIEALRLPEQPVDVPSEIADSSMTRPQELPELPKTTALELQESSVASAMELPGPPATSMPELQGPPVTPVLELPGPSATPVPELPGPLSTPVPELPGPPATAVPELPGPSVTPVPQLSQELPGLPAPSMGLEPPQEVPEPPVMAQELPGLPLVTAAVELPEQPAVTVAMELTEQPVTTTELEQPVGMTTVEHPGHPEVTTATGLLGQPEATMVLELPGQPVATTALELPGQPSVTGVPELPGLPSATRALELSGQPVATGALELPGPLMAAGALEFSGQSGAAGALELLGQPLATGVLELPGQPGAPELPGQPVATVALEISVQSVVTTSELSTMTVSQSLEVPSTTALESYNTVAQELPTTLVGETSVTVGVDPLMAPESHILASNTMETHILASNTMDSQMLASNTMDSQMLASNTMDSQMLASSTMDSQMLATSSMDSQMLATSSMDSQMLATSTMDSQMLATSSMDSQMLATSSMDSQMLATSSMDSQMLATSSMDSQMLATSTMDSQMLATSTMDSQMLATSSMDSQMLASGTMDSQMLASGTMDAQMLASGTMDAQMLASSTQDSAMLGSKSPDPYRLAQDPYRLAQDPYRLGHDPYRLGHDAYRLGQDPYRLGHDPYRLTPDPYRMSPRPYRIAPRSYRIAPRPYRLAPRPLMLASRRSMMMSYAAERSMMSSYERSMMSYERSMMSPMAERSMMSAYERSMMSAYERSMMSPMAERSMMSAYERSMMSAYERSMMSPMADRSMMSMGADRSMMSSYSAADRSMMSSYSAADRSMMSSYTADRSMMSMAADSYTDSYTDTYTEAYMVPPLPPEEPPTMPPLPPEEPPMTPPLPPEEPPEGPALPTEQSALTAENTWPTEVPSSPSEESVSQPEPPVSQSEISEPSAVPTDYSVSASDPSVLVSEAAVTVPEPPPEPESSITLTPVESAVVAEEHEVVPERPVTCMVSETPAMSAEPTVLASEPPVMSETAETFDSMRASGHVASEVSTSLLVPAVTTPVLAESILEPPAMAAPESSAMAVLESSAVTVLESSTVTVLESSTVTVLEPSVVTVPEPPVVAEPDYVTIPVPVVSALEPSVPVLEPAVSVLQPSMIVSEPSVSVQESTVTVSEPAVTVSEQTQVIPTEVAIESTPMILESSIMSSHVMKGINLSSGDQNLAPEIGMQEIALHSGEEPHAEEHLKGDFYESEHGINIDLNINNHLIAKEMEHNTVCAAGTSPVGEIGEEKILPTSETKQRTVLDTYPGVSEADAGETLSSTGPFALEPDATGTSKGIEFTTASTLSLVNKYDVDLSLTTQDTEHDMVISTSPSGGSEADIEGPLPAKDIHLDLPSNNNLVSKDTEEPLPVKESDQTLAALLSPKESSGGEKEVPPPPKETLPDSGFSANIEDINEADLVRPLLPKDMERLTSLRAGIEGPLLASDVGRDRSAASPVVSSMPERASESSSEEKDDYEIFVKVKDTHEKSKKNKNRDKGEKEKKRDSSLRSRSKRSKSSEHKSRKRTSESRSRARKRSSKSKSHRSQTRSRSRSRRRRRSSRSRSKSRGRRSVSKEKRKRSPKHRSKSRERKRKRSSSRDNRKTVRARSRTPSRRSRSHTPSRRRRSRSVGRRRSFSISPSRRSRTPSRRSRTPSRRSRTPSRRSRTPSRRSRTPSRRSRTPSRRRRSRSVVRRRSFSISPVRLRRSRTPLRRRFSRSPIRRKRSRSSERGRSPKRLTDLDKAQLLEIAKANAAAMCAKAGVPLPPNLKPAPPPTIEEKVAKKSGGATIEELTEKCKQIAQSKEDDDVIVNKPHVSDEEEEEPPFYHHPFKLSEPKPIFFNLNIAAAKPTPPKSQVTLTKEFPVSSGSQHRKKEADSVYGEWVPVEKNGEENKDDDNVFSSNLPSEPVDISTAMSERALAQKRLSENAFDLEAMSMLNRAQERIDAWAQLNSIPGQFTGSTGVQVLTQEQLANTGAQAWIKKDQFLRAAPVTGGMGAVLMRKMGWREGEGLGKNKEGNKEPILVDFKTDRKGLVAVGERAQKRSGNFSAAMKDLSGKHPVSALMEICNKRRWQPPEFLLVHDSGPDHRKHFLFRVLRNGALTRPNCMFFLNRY

[6] = molecular target: Cys residues in primary human T cells (Homo sapiens, UniProt Q9NWZ3); conditions: IRAK4 C13 (Q9NWZ3)
Chain of Cys residues in primary human T cells (Homo sapiens, UniProt Q9NWZ3) (Q9NWZ3 whole entry): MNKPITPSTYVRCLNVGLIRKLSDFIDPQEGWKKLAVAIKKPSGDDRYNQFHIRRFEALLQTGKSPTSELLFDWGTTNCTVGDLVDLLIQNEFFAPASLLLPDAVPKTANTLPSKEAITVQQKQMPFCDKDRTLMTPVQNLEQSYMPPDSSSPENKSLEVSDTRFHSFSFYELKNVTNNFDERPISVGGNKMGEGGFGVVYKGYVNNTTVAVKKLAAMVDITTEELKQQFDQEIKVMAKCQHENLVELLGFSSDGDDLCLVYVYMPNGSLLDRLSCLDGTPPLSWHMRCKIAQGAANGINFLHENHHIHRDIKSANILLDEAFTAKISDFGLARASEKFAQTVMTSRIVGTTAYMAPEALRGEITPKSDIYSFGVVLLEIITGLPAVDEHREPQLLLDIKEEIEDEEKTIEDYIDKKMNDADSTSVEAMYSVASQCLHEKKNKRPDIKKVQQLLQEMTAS

[7] = molecular target: Cys residues in primary human T cells (Homo sapiens, UniProt Q7Z2W4); conditions: ZC3HAV1 C645 (Q7Z2W4)
Chain of Cys residues in primary human T cells (Homo sapiens, UniProt Q7Z2W4) (Q7Z2W4 whole entry): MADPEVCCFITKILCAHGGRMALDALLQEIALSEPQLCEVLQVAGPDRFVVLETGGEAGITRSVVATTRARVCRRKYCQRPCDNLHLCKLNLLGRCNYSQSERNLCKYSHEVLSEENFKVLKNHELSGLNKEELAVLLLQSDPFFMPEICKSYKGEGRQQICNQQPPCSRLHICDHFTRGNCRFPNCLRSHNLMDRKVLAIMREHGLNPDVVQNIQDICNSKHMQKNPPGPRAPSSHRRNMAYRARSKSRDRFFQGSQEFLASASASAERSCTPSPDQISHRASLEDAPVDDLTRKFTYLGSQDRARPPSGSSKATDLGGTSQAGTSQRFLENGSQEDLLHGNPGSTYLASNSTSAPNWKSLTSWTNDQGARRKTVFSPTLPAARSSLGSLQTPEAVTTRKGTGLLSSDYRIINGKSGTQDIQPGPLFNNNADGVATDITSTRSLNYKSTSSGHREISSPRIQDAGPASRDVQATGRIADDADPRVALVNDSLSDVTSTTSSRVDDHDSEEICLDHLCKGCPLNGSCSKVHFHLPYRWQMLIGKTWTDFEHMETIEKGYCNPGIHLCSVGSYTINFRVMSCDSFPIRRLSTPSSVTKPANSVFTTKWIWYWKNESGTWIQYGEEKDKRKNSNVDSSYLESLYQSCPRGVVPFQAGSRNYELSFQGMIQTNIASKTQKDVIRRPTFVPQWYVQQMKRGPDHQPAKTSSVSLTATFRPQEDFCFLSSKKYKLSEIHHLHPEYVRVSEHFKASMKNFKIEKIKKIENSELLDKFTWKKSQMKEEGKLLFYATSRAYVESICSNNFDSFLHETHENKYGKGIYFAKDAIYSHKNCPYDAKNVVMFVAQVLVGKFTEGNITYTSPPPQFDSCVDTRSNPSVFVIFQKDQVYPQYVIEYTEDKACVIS

[8] = molecular target: Cys residues in primary human T cells (Homo sapiens, UniProt Q93009); conditions: USP7 C315 (Q93009)
Chain of Cys residues in primary human T cells (Homo sapiens, UniProt Q93009) (Q93009 whole entry): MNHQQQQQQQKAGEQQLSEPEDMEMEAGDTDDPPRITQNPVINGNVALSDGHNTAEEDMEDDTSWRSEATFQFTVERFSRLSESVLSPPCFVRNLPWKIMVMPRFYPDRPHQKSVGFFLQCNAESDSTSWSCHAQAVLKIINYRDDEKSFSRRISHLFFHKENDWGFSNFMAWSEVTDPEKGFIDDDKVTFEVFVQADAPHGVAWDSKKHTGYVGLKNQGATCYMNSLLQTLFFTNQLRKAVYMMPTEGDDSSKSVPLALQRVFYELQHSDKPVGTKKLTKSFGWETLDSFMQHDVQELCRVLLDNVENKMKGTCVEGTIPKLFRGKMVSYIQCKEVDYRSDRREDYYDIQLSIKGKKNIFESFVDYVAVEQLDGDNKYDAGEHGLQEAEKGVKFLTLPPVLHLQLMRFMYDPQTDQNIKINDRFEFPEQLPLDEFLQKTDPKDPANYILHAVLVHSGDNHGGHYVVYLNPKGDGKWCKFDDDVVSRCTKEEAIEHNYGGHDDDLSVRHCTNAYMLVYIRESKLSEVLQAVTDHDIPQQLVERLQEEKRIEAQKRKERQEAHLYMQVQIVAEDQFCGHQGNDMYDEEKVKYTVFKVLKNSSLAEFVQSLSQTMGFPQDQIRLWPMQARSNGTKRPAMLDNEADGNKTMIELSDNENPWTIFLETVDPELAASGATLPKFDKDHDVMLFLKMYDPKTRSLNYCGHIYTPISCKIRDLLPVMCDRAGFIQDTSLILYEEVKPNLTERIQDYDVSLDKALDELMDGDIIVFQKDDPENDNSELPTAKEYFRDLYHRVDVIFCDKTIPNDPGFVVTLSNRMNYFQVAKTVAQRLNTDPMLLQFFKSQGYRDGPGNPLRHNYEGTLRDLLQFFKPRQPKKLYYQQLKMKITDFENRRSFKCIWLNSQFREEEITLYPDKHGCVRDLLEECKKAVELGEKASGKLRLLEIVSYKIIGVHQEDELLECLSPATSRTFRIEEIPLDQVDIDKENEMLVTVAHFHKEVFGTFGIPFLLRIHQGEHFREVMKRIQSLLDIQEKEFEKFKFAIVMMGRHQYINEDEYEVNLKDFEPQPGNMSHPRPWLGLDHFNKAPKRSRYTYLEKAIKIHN

[9] = molecular target: T4, Cys residues in primary human T cells (Homo sapiens, UniProt P00813); conditions: ADA C75 (P00813)
T4 sequence (P00813 1-363): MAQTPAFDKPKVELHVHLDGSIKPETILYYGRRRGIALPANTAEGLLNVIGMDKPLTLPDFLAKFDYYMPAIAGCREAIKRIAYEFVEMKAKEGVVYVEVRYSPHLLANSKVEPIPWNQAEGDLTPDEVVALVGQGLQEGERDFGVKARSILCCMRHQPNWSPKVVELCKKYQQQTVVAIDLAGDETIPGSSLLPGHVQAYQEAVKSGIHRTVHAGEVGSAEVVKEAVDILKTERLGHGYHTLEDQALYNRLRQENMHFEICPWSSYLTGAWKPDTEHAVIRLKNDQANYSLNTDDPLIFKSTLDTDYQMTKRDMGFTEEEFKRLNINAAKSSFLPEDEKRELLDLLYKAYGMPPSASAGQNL

[10] = molecular target: Cys residues in primary human T cells (Homo sapiens, UniProt Q96CW5); conditions: TUBGCP3 C194 (Q960W5)

## COC(=O)/C=C/C(=O)OC [DMF, dimethyl fumarate]
[1]; DMF 10 μM 4h
  R value (DMSO/DMF): 1.98
[1]; DMF 50 μM 1h
  R value (DMSO/DMF): 2.5
[1]; DMF 50 μM 2h
  R value (DMSO/DMF): 3.91
[1]; DMF 50 μM 4h
  R value (DMSO/DMF): 4.6
[2]; DMF 10 μM 4h
  R value (DMSO/DMF): 5.07
[2]; DMF 50 μM 1h
  R value (DMSO/DMF): 12.59
[2]; DMF 50 μM 2h
  R value (DMSO/DMF): 11.72
[3]; DMF 10 μM 4h
  R value (DMSO/DMF): 1.52
[3]; DMF 50 μM 1h
  R value (DMSO/DMF): 1.6
[3]; DMF 50 μM 2h
  R value (DMSO/DMF): 2.1
[3]; DMF 50 μM 4h
  R value (DMSO/DMF): 4.63
[4]; DMF 10 μM 4h
  R value (DMSO/DMF): 1.65
[4]; DMF 25 μM 4h
  R value (DMSO/DMF): 3.53
[4]; DMF 50 μM 1h
  R value (DMSO/DMF): 2.47
[4]; DMF 50 μM 2h
  R value (DMSO/DMF): 3.73
[4]; DMF 50 μM 4h
  R value (DMSO/DMF): 6.76
[5]; DMF 50 μM 1h
  R value (DMSO/DMF): 2.5
[5]; DMF 50 μM 2h
  R value (DMSO/DMF): 6.31
[5]; DMF 50 μM 4h
  R value (DMSO/DMF): 4.17
[6]; DMF 50 μM 1h
  R value (DMSO/DMF): 8.3
[6]; DMF 50 μM 4h
  R value (DMSO/DMF): 20
[7]; DMF 10 μM 4h
  R value (DMSO/DMF): 1.46
[7]; DMF 25 μM 4h
  R value (DMSO/DMF): 2.52
[7]; DMF 50 μM 1h
  R value (DMSO/DMF): 2.36
[7]; DMF 50 μM 2h
  R value (DMSO/DMF): 3.13
[7]; DMF 50 μM 4h
  R value (DMSO/DMF): 6.28
[8]; DMF 10 μM 4h
  R value (DMSO/DMF): 1.9
[8]; DMF 50 μM 1h
  R value (DMSO/DMF): 5.33
[8]; DMF 50 μM 2h
  R value (DMSO/DMF): 14.06
[9]; DMF 10 μM 4h
  R value (DMSO/DMF): 2.29
[9]; DMF 50 μM 1h
  R value (DMSO/DMF): 2.51
[9]; DMF 50 μM 2h
  R value (DMSO/DMF): 5.08
[9]; DMF 50 μM 4h
  R value (DMSO/DMF): 20
[10]; DMF 50 μM 2h
  R value (DMSO/DMF): 2.44
[10]; DMF 50 μM 4h
  R value (DMSO/DMF): 4.94

From US10670605B2, “Cysteine reactive probes and uses thereof” (The Scripps Research Institute, priority 2015, dated 2020)
